Values quoted from earlier work, collected in patent US7666392B2, “Click chemistry-derived cyclopeptide derivatives as imaging agents for integrins” (Siemens Medical Solutions USA, Inc., priority 2006, dated 2010).

For c(RGDyV), the “tumor uptake in vivo” value (125I-labeled) is given as “receptor-specific tumor uptake in vivo” and the “tumor washout and excretion” value (in vivo) is given as “rapid tumor washout and unfavorable hepatobiliary excretion”.
